Test results as given in patent publication US20240226067A9, “ANTI-FIBROTIC THERAPIES” (THE JOHNS HOPKINS UNIVERSITY, priority 2021, published 2024).

Columns and labels:
[1] = system: CCO18CD colon fibroblasts stimulated with TGF-β; assay: High throughput microscopy-based anti-fibrotic drug screen (α-SMA and collagen 1 expression); type: cell-based
Text: FIG. 1 is images of cells from high throughput microscopy-based analysis of an FDA-approved drug library for potential anti-fibrotic properties.
FIGS. 3A-3C are images of cells from high throughput microscopy-based analysis of potential drugs for anti-fibrotic properties.

[2] = system: key fibrosis genes (ACTA2, COL1A1, COL3A1, TGFBR1) in transplanted intestinal tissue; assay: Subcutaneous intestinal transplant fibrosis model, qPCR of fibrosis genes; type: in vivo; conditions: mouse; one subcutaneous injection 15 mg/kg; one week after implantation; versus oral pirfenidone 100 mg/kg three times daily
Text: A 1-2 cm segment of bowel was excised from one mouse and implanted in the subcutaneous space on the neck of another mouse of the same genetic background. […] One week after tissue implantation and initiation of treatment, the segment of transplanted intestine tissue was excised to assess expression of key genes involved in fibrosis (α-SMA, ACTA2; collagen type 1, COL1A1; collagen type 3, COL3A1; TGF-β receptor 1, TGFBR1) by qPCR.

[3] = mouse, in vivo, sc, 50 mg/kg
[4] = system: intestinal fibroblast cells; assay: Cell survival in the microscopy-based screen; conditions: at effective concentrations

Cc1ccc(=O)n(-c2ccccc2)c1 [pirfenidone]
concentration causing reduction in α-SMA and collagen production ([1]; TGF-β stimulated colon fibroblasts): 4 mM
concentration level at which induced expression of α-SMA and/or collagen was reduced (in words) ([1]; TGF-β stimulated intestinal fibroblasts): millimolar concentrations

Clc1ccc(CSC(Cn2ccnc2)c2ccc(Cl)cc2Cl)cc1 (centres unmarked) [sulconazole, 1-[2-[(4-chlorophenyl)methylsulfanyl]-2-(2,4-dichlorophenyl)ethyl]imidazole]
repression of fibrosis genes (ACTA2, COL1A1, COL3A1, TGFBR1) [2]: significantly more effective than pirfenidone
mortality [3]: death of mice
impact on cell survival [4]: minimal impact on cell survival
